Data reported in paper PMC8623851, “The Structural Determinants for α1-Adrenergic/Serotonin Receptors Activity among Phenylpiperazine-Hydantoin Derivatives” (Molecules, 2021).
Where two headings read alike, the source gives them in different places.

Key:
[1] = target: α1BR; set-up: method as in PMID 31330215; conditions: cited from earlier work
[2] = target: α1AR; set-up: method as in PMID 31330215; conditions: cited from earlier work
[3] = target: 5-HT1AR; set-up: method as in PMID 31330215; conditions: cited from earlier work
[4] = system: behavioral models; set-up: method as in PMID 31330215; conditions: cited from earlier work
[5] = target: α1DR; set-up: method as in PMID 31330215; conditions: cited from earlier work
[6] = target: 5-HT2AR; set-up: method as in PMID 31330215; conditions: cited from earlier work
[7] = target: α1-receptor; set-up: method as in PMID 31383628, PMID 29425815; conditions: previously reported arylpiperazine hydantoin derivatives; cited from earlier work
[8] = target: α1-receptor; assay: Radioligand binding assay: affinity for α1-receptor ([3H]Prazosin, rat cortex)
Procedure: Tissue (rat cortex) was homogenized in 20 volumes of ice-cold 50 mM Tris-HCl buffer, pH 7.6, using an Ultra Turrax T25B homogenizer (IKA, Staufen, Germany). The homogenate was centrifuged at 20,000× g for 20 min. The resulting supernatant was decanted and pellet was resuspended in the same buffer and centrifuged again in the same conditions. The final pellet was resuspended in an appropriate volume of buffer (10 mg/1 mL).
The concentrations of analyzed compounds ranged from 10^−10 to 10^−5 M.
The incubation was terminated by rapid filtration over glass fiber filters FilterMate B (PerkinElmer, Waltham, MA, USA) using a 96-well FilterMate harvester (PerkinElmer, Waltham, MA, USA). Five rapid washes were performed with ice-cold 50 mM Tris-HCl buffer, pH 7.6.
The FilterMate was dried in a microwave and placed in a plastic bag (PerkinElmer, Waltham, MA, USA) and soaked in 10 mL of a liquid scintillation cocktail Ultima Gold MV (PerkinElmer, Waltham, MA, USA). After even distribution of the scintillation cocktail, the filter bag was sealed.
The radioactivity on the filter was measured by a MicroBeta TriLux 1450 scintillation counter (PerkinElmer, Waltham, MA, USA).
Radioligand binding data were analyzed using iterative curve fitting routines GraphPad Prism 3.0 (GraphPad Software, San Diego, CA, USA) using the built-in three parameter logistic model describing ligand competition binding to radioligand-labeled sites.

[9] = target: T1, human 5-HT1A receptor (Homo sapiens, UniProt P08908); assay: Radioligand binding assay 5-HT1A (HEK-293 membranes, [3H]-8-OH-DPAT)
T1 sequence (P08908 1-422): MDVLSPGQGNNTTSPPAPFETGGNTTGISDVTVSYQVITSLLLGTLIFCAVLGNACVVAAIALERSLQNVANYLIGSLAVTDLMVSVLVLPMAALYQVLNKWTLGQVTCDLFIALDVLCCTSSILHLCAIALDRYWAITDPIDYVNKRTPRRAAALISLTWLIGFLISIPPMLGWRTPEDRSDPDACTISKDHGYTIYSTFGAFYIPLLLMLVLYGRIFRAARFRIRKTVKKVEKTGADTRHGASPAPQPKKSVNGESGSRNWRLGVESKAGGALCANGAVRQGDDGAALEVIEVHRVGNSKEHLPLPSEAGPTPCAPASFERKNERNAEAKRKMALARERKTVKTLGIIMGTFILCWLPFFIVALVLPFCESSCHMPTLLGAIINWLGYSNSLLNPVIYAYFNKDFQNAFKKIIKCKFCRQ

[10] = target: human 5-HT7b receptor (Homo sapiens, UniProt P34969); assay: Radioligand binding assay 5-HT7 (HEK-293 membranes, [3H]-5-CT)
Sequence of human 5-HT7b receptor (P34969 1-432): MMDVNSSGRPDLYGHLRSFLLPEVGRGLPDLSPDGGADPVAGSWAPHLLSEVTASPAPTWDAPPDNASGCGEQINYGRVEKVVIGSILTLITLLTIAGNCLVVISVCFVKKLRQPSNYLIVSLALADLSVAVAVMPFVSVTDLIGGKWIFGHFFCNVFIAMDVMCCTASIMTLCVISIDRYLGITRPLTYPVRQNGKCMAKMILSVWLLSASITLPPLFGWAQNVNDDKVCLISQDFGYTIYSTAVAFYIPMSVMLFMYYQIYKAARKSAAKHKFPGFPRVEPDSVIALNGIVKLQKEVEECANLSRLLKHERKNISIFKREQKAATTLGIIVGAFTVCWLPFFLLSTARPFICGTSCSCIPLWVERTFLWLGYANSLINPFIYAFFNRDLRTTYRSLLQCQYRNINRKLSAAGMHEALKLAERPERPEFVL

[11] = target: human 5-HT6 receptor (Homo sapiens, UniProt P50406); assay: Radioligand binding assay 5-HT6 (HEK-293 membranes, [3H]-LSD)
Sequence of human 5-HT6 receptor (P50406 whole entry): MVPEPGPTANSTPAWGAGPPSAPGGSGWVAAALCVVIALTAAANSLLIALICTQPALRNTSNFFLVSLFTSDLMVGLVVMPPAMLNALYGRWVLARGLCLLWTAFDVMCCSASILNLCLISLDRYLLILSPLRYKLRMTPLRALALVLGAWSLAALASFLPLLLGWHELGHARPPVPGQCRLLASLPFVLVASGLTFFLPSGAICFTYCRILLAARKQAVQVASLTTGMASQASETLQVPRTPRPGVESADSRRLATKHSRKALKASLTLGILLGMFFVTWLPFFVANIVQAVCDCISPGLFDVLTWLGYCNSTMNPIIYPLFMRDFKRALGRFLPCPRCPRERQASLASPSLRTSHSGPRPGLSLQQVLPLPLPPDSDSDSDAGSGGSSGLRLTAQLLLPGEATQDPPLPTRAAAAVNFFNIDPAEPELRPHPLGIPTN

[12] = target: T2, α1A-AR (Homo sapiens, UniProt P35348); assay: Intrinsic (functional) activity for α1A-AR; format: cell-based; conditions: antagonist potency; α1A-AR in rat tail artery (table title); 4–7 experimental results; read-out: IC50 ± SEM α1A-AR
T2 sequence (P35348 1-466): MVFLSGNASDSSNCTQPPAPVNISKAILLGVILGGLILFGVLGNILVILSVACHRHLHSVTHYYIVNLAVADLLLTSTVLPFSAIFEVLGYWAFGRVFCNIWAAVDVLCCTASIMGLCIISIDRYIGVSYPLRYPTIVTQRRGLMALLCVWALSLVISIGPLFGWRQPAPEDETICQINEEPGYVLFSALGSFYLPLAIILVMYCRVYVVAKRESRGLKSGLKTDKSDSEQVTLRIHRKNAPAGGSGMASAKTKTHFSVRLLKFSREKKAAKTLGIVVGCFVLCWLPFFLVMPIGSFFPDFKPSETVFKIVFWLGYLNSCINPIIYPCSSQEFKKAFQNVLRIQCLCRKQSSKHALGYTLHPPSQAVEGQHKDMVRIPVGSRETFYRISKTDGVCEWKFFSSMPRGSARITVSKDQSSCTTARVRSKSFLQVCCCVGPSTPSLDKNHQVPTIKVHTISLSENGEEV

[13] = target: T3, α1B-AR (Homo sapiens, UniProt P35368); assay: Intrinsic (functional) activity for α1B-AR (Aequoscreen); format: cell-based; conditions: antagonist potency; α1B-AR in mouse spleen (table title); 4–7 experimental results; read-out: IC50 ± SEM α1B-AR
T3 construct: expressed in transfected cells; host or cells: recombinant Aequoscreen cell line (frozen, ready to use)
T3 sequence (P35368 1-520): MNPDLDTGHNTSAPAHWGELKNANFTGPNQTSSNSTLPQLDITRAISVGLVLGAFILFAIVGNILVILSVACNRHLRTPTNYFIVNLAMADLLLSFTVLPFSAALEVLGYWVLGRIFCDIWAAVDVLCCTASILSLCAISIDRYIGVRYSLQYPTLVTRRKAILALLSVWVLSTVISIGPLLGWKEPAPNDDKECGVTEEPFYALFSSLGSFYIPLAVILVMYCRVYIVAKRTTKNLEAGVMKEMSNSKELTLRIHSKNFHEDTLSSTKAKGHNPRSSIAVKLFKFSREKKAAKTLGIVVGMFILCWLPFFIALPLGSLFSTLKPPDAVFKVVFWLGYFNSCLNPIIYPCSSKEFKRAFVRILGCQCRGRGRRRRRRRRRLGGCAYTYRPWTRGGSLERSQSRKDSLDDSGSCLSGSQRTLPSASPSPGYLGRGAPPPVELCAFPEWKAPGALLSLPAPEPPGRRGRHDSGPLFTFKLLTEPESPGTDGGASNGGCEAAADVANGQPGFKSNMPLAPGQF

Ki [8]	Ki [9]	Ki [10]	Ki [11]	melting point	Compound	other results
187 ± 18.6 nM	530 nM	283 nM	17600 nM	–	COc1cccc(/C=C2\NC(=O)N(CC(O)CN3CCN(c4ccccc4OC)CC3)C2=O)c1 (centres unmarked) [Compound 4, (Z)-3-(2-hydroxy-3-(4-(2-methoxyphenyl)piperazin-1-yl)propyl)-5-(3-methoxybenzylidene)imidazolidine-2,4-dione]	–
144 ± 7.9 nM	3530 nM	1040 nM	11700 nM	104 to 106 °C	COc1ccc(/C=C2\NC(=O)N(CC(O)CN3CCN(c4ccccc4F)CC3)C2=O)cc1 (centres unmarked) [Compound 8, (Z)-3-(3-(4-(2-fluorophenyl)piperazin-1-yl)-2-hydroxypropyl)-5-(4-methoxybenzylidene)imidazolidine-2,4-dione]	–
89.5 ± 9 nM	1870 nM	1250 nM	2830 nM	104 to 106 °C	CCOc1ccccc1N1CCN(CC(O)CN2C(=O)N/C(=C\c3cc(OC)c(OC)c(OC)c3)C2=O)CC1 (centres unmarked) [Compound 9, (Z)-3-(3-(4-(2-ethoxyphenyl)piperazin-1-yl)-2-hydroxypropyl)-5-(3,4,5-trimethoxybenzylidene)imidazolidine-2,4-dione]	–
20.2 ± 4.1 nM	103 nM	–	–	–	CCOc1ccccc1N1CCN(CCCN2C(=O)N/C(=C\c3cccc(OC)c3)C2=O)CC1 [Compound 10, (Z)-3-(3-(4-(2-ethoxyphenyl)piperazin-1-yl)propyl)-5-(3-methoxybenzylidene)imidazolidine-2,4-dione]	IC50 [12]: 7.2 ± 1.1 nM; IC50 [13]: 9.2 ± 1.3 nM
44.8 ± 3.3 nM	319 nM	152 nM	1720 nM	144 to 146 °C	COc1cccc(/C=C2\NC(=O)N(CCCN3CCN(c4ccccc4Cl)CC3)C2=O)c1 [Compound 11, (Z)-3-(3-(4-(2-chlorophenyl)piperazin-1-yl)propyl)-5-(3-methoxybenzylidene)imidazolidine-2,4-dione]	–
34.6 ± 4.6 nM	20.6 nM	101 nM	22000 nM	–	COc1ccc(/C=C2\NC(=O)N(CCCN3CCN(c4ccccc4OC)CC3)C2=O)cc1 [Compound 12, (Z)-5-(4-methoxybenzylidene)-3-(3-(4-(2-methoxyphenyl)piperazin-1-yl)propyl)imidazolidine-2,4-dione]	IC50 [12]: 12.8 ± 2.5 nM; IC50 [13]: 8.5 ± 1.1 nM
19.5 ± 2.6 nM	45.8 nM	114 nM	> 50000 nM	180 to 183 °C	CCOc1ccccc1N1CCN(CCCN2C(=O)N/C(=C\c3ccc(OC)cc3)C2=O)CC1 [Compound 13, (Z)-3-(3-(4-(2-ethoxyphenyl)piperazin-1-yl)propyl)-5-(4-methoxybenzylidene)imidazolidine-2,4-dione]	–
11.9 ± 2.2 nM	128 nM	189 nM	15800 nM	–	COc1ccc(/C=C2\NC(=O)N(CCCN3CCN(c4ccccc4OC)CC3)C2=O)cc1OC [Compound 14]	IC50 [12]: 57.6 ± 7.2 nM; IC50 [13]: 182 ± 21.4 nM
15.7 ± 1.5 nM	–	–	–	–	Cc1ccc(N(CC2=NCCN2)c2cccc(O)c2)cc1 [fentolamine, reference compound]	–

The remaining lines, values behind:

Compound	Ki [8]	Ki [9]	Ki [10]	Ki [11]	melting point	other results
COc1ccccc1N1CCN(CCn2cnc3ccccc3c2=O)CC1 [ACH-000029]	–	–	–	–	–	Ki [1]: 4.6 nM; Ki [2]: 0.07 nM; Ki [3]: 14 nM; anxiolytic activity [4]: anxiolytic activity in behavioral models; Ki [5]: 1.1 nM; Ki [6]: 500 nM
COc1ccc(/C=C2\NC(=O)N(CC(O)CN3CCN(c4ccccc4OC)CC3)C2=O)cc1OC (centres unmarked) [Compound 1]	–	–	–	–	–	Ki [7]: 44.5 nM
COc1ccccc1N1CCN(CC(O)CN2C(=O)NC(C)(c3ccc(F)cc3)C2=O)CC1 (centres unmarked) [Compound 2]	–	–	–	–	–	Ki [7]: 230 nM
CCOc1ccccc1N1CCN(CC(O)CN2C(=O)N/C(=C\c3cccc(OC)c3)C2=O)CC1 (centres unmarked) [Compound 5, (Z)-3-(3-(4-(2-ethoxyphenyl)piperazin-1-yl)-2-hydroxypropyl)-5-(3-methoxybenzylidene)imidazolidine-2,4-dione]	75.9 ± 2.3 nM	557 nM	79 nM	19200 nM	–	–
COc1ccc(/C=C2\NC(=O)N(CC(O)CN3CCN(c4ccccc4OC)CC3)C2=O)cc1 (centres unmarked) [Compound 6, (Z)-3-(2-hydroxy-3-(4-(2-methoxyphenyl)piperazin-1-yl)propyl)-5-(4-methoxybenzylidene)imidazolidine-2,4-dione]	145 ± 13.3 nM	282 nM	197 nM	20400 nM	176 to 178 °C	–
CCOc1ccccc1N1CCN(CC(O)CN2C(=O)N/C(=C\c3ccc(OC)cc3)C2=O)CC1 (centres unmarked) [Compound 7, (Z)-3-(3-(4-(2-ethoxyphenyl)piperazin-1-yl)-2-hydroxypropyl)-5-(4-methoxybenzylidene)imidazolidine-2,4-dione]	99.1 ± 11.3 nM	313 nM	120 nM	10200 nM	–	–
COc1ccccc1N1CCN(CCCN2C(=O)N/C(=C\c3cc(OC)c(OC)c(OC)c3)C2=O)CC1 [Compound 15, (Z)-3-(3-(4-(2-methoxyphenyl)piperazin-1-yl)propyl)-5-(3,4,5-trimethoxybenzylidene)imidazolidine-2,4-dione]	25.8 ± 2.9 nM	172 nM	668 nM	12300 nM	130 to 132 °C	–
CCOc1ccccc1N1CCN(CCCN2C(=O)N/C(=C\c3cc(OC)c(OC)c(OC)c3)C2=O)CC1 [Compound 16, (Z)-3-(3-(4-(2-ethoxyphenyl)piperazin-1-yl)propyl)-5-(3,4,5-trimethoxybenzylidene)imidazolidine-2,4-dione]	14.7 ± 1.1 nM	165 nM	138 nM	15200 nM	–	IC50 [12]: 19.1 ± 3.4 nM; IC50 [13]: 0.82 ± 0.1 nM
CCOc1ccccc1OCCN[C@H](C)Cc1ccc(OC)c(S(N)(=O)=O)c1 [Tamsulosin, reference compound]	–	–	–	–	–	IC50 [13]: 0.13 ± 0.02 nM
